The subject of experiment [1] is Enterococcus faecalis (ATCC29212). As to the kind of experiment: MIC, broth microdilution (CLSI), Enterococcus faecalis. It counts as cell-based. (In general: Broth dilution looks for growth in wells or tubes with falling amounts of substance.)
For experiment [2], the system named is Pseudomonas aeruginosa (ATCC27853). As to the kind of experiment: MIC, broth microdilution (CLSI), Pseudomonas aeruginosa. Format: cell-based.
For experiment [3], the system named is E. coli RNase P RNA, M1 RNA. As to the kind of experiment: Inhibition of bacterial RNase P activity, IC50 determination (cleavage of pATSerUG by M1 RNA). Format: biochemical. To be noted: NI: No inhibition.
For the next experiment, the system named is A. baumannii ATCC 17978. As to the kind of experiment: MIC, A. baumannii ATCC 17978. To be noted: Acinetobacter baumannii, ATCC17978; Table XIV B. Gram-negative bacteria. It counts as cell-based.
For a further experiment, the system named is S. pneumoniae ATCC 49619. As to the kind of experiment: MIC, S. pneumoniae ATCC 49619. It counts as cell-based. To be noted: Streptococcus pneumoniae, ATCC49619; Table XIV A. Gram-positive bacteria.
In experiment [4] the test system is S. aureus MRSA ATCC 33591. As to the kind of experiment: MIC, S. aureus MRSA ATCC 33591. To be noted: Staphylococcus aureus, read-out: S. aureus MRSA ATCC 33591 MIC. It counts as cell-based.
For experiment [5], the system named is E. coli JW5503 (efflux defective). As to the kind of experiment: MIC, E. coli JW5503 (efflux defective). Format: cell-based. To be noted: Escherichia coli, read-out: E. coli JW5503 (efflux defective) MIC.
The test system of experiment [6] is Escherichia coli (ATCC25922). As to the kind of experiment: MIC, broth microdilution (CLSI), Escherichia coli. Conditions: Escherichia coli.
The next experiment concerns E. faecium ATCC 700221. As to the kind of experiment: MIC, E. faecium ATCC 700221. Format: cell-based. Conditions: Enterococcus faecium.
The subject of experiment [7] is N. gonorrhoeae ATCC 700825. As to the kind of experiment: MIC, N. gonorrhoeae ATCC 700825. Format: cell-based. To be noted: Neisseria gonorrhoeae, ATCC700825; Table XIV B. Gram-negative bacteria.
Experiment [8] relates to Staphylococcus aureus (ATCC25923). As to the kind of experiment: MIC, broth microdilution (CLSI), Staphylococcus aureus ATCC25923. To be noted: Staphylococcus aureus, ATCC25923, read-out: S. aureus ATCC 25923 MIC.
A further experiment has as its system H. influenzae ATCC 49247. As to the kind of experiment: MIC, H. influenzae ATCC 49247. It counts as cell-based. Conditions: Haemophilus influenzae, ATCC49247; Table XIV B. Gram-negative bacteria.
In experiment [9] the test system is P. aeruginosa NTUH974 (MDR). As to the kind of experiment: MIC, P. aeruginosa NTUH974 (MDR). Conditions: Pseudomonas aeruginosa, read-out: P. aeruginosa NTUH974 (MDR) MIC. Format: cell-based.
In the next experiment the test system is K. pneumoniae ATCC 43816. As to the kind of experiment: MIC, K. pneumoniae ATCC 43816. It counts as cell-based. To be noted: Klebsiella pneumoniae, ATCC43816; Table XIV B. Gram-negative bacteria.
Experiment [10] has as its system Staphylococcus aureus subsp. aureus (ATCC29213). As to the kind of experiment: MIC, broth microdilution (CLSI), Staphylococcus aureus ATCC29213. Format: cell-based. To be noted: Staphylococcus aureus.
Setting [11] is: ATCC29212, Table XIV A. Gram-positive bacteria, read-out: E. faecalis ATCC 29212 MIC.
Setting [12] is: ATCC27853, Table XIV B. Gram-negative bacteria, read-out: P. aeruginosa ATCC 27853 MIC.
[13] abbreviates: Table XIV A. Gram-positive bacteria.
[14] abbreviates: ATCC25922, read-out: E. coli ATCC 25922 MIC, Table XIII.
Where [15] appears, read: ATCC25922, read-out: E. coli ATCC 25922 MIC, Table XIV B. Gram-negative bacteria.
The mark [16] stands for this setting: ATCC700221, Table XIV A. Gram-positive bacteria, read-out: E. faecium ATCC 700221 MIC.
The mark [17] stands for this setting: Table XIV B. Gram-negative bacteria.
Setting [18] is: ATCC29213, Table XIII, read-out: S. aureus ATCC 29213 MIC.
Setting [19] is: ATCC29213, Table XIV A. Gram-positive bacteria, read-out: S. aureus ATCC 29213 MIC.
Where [20] appears, read: ATCC29213, read-out: S. aureus ATCC 29213 MIC, Table XIII.

This is an account of results in patent US20210246115A1 (Bioimics AB, priority 2017, published 2021).

Where a name gives a salt, the structure may show the parent alone. Read-outs that look alike come from different tables or passages of the source. Some results are limits rather than exact numbers.

The term IC50 denotes the concentration at which inhibition is half-maximal. A higher IC50 goes with weaker potency.

Take `Cc1cccc(C(CCNC2CCNCC2)c2cn(CC3CCCCC3)c3ccc(Br)cc23)c1.Cl` (stereo not shown) [Compound 163, N-(3-(5-bromo-1-(cyclohexylmethyl)-1H-indol-3-yl)-3-(m-tolyl)propyl)piperidin-4-amine hydrochloride salt]: the MIC in experiment [1] (setting [11]) turned out to be 2 µg/mL; in experiment [2] (setting [12]), 16 µg/mL; against A. baumannii ATCC 17978, 4 µg/mL; against S. pneumoniae ATCC 49619, 8 µg/mL; in [4] (setting [13]), 4 µg/mL; in [5], 4 µg/mL. Besides, the MIC in [6] (setting [14]) was found to be 2 µg/mL; in experiment [6] (setting [15]), 4 µg/mL; in the experiment with E. faecium ATCC 700221 (setting [16]) it was 2 µg/mL; in [7] it was 2 µg/mL; in [8] it was 1 µg/mL; in the experiment with H. influenzae ATCC 49247, 4 µg/mL. In addition, the MIC is 16 µg/mL in experiment [9] (setting [17]), 4 µg/mL against K. pneumoniae ATCC 43816, 2 µg/mL in experiment [10] (setting [18]) and 4 µg/mL in experiment [10] (setting [19]). For the same compound, the concentration for half-maximal inhibition (IC50) in experiment [3] came to 8.5 µM.
As to `Cc1ccccc1C(CCNC1CCC(N)CC1)c1cn(CC2CCCCC2)c2ccccc12` (stereo not shown) [Compound 186, N1-(3-(1-(cyclohexylmethyl)-1H-indol-3-yl)-3-(o-tolyl)propyl)cyclohexane-1,4-diamine hydrochloride salt], the MIC in [1] (ATCC29212, read-out: E. faecalis ATCC 29212 MIC) is 4 µg/mL; in experiment [2] (ATCC27853, read-out: P. aeruginosa ATCC 27853 MIC), 16 µg/mL; against A. baumannii ATCC 17978 it was 4 µg/mL; against S. pneumoniae ATCC 49619, 8 µg/mL; in experiment [4] it was 4 µg/mL; in experiment [5], 2 µg/mL. Further, the MIC worked out at 4 µg/mL in experiment [6] (setting [14]); 4 µg/mL in experiment [6] (setting [15]); 2 µg/mL in the experiment on E. faecium ATCC 700221 (ATCC700221, read-out: E. faecium ATCC 700221 MIC); 2 µg/mL in experiment [7]; 4 µg/mL in [8]; 8 µg/mL in the experiment on H. influenzae ATCC 49247. Further, the MIC in experiment [9] turned out to be 32 µg/mL; against K. pneumoniae ATCC 43816, 8 µg/mL; in experiment [10] (setting [20]), 4 µg/mL; in [10] (ATCC29213, read-out: S. aureus ATCC 29213 MIC, Table XIV A. Gram-positive bacteria), 4 µg/mL. Besides, in experiment [3], the midpoint of inhibition, the IC50, lay at 3.6 µM.
Regarding `Cc1cccc(C(CCNC2CCCCC2)c2cn(CC3CCCCC3)c3ccccc23)c1.Cl` (stereo not shown) [Compound 215, N-(3-(1-(cyclohexylmethyl)-1H-indol-3-yl)-3-(m-tolyl)propyl) cyclohexanamine hydrochloride salt], the MIC in experiment [1] (setting [11]) was 2 µg/mL; in [2] (setting [12]), greater than 128 µg/mL; in the experiment on A. baumannii ATCC 17978, greater than 128 µg/mL; against S. pneumoniae ATCC 49619, 2 µg/mL; in experiment [4] (setting [13]) it was greater than 128 µg/mL; in experiment [5] it was 64 µg/mL. In addition, the MIC is greater than 128 µg/mL in experiment [6] (setting [14]); greater than 128 µg/mL in experiment [6] (setting [15]); 1 µg/mL in the experiment on E. faecium ATCC 700221 (setting [16]); 1 µg/mL in [7]; 2 µg/mL in [8]; 16 µg/mL in the experiment on H. influenzae ATCC 49247. Besides, the MIC in [9] (setting [17]) is greater than 128 µg/mL; against K. pneumoniae ATCC 43816 it was greater than 128 µg/mL; in [10] (setting [18]) it was 2 µg/mL; in [10] (setting [19]), 2 µg/mL.
As for `Cc1cccc(C(CC(=O)NCCC2CCNCC2)c2cn(CC3CCCCC3)c3ccc(Br)cc23)c1.Cl` (stereo not shown) [Compound 120, 3-(5-bromo-1-(cyclohexylmethyl)-1H-indol-3-yl)-N-(2-(piperidin-4-yl)ethyl)-3-(m-tolyl)propanamide hydrochloride salt], the MIC in experiment [1] (setting [11]) came out at 4 µg/mL; in experiment [2] (setting [12]), 64 µg/mL; with A. baumannii ATCC 17978, 64 µg/mL; against S. pneumoniae ATCC 49619, 16 µg/mL; in experiment [4] (setting [13]), 32 µg/mL; in experiment [5], 16 µg/mL. In addition, the MIC in [6] (setting [14]) was greater than 512 µg/mL; in [6] (setting [15]), 32 µg/mL; with E. faecium ATCC 700221 (setting [16]) it was 4 µg/mL; in [7] it was 2 µg/mL; in experiment [8] it was 2 µg/mL; in the experiment with H. influenzae ATCC 49247, 16 µg/mL. The MIC in experiment [9] (setting [17]) turned out to be 64 µg/mL; against K. pneumoniae ATCC 43816 it was 64 µg/mL; in [10] (setting [19]), 2 µg/mL. The same compound displayed a 50% inhibitory concentration (IC50) in experiment [3] of 11 µM.
The compound `Cc1cccc(C(CCNC2CCNCC2)c2cn(CC3CCOCC3)c3ccc(Br)cc23)c1` (stereo not shown) [Compound 293, N-(3-(5-bromo-1-((tetrahydro-2H-pyran-4-yl)methyl)-1H-indol-3-yl)-3-(m-tolyl)propyl) piperidin-4-amine hydrochloride salt] returned an IC50 in experiment [3] of 70 µM. Also, the MIC in experiment [6] (setting [14]) turned out to be 4 µg/mL; in [8] it was 5 µg/mL; in [10] (setting [20]) it was 8 µg/mL.
